Source: patent publication US20260364184A1, “COMPOUND BASED ON OXOISOINDOLINYL-SUBSTITUTED TETRAHYDROPYRIMIDINE-DIONE AND USE THEREOF” (GLUETACS THERAPEUTICS (SHANGHAI) CO., LTD., priority 2023, published 2026)

Key:
ER = ER (Homo sapiens, UniProt P03372); assay: Western blot degradation of ER; type: cell-based; details: Table IIA3, ER inhibitor-based
Experimental: (§1) Conventional Western blot assay was performed to evaluate the effects of the compounds of the present disclosure on the expression of target proteins in cells.
(§2) (1) Cell Seeding and Protein Harvesting: The selected cells were processed according to the cell seeding procedure and protein harvesting procedure in Table II-2.
(§3) (2) To the collected supernatant, 5×SDS sample loading buffer was added, followed by denaturation at 95 °C for 5 minutes. The denatured samples were then separated by SDS-PAGE electrophoresis on a polyacrylamide gel. Proteins were transferred to a nitrocellulose membrane (0.45 μm NC membrane), blocked with blocking buffer at room temperature for 1 hour, and subjected to antibody incubation and development procedures according to the antibody manufacturer's instructions (Cell Signaling Technology).
(§4) Half-Maximal Degradation Concentration value (the drug concentration required for degrading proteins by 50%, abbreviated as DC50) reads method: comparing the grayscale values of Western blot bands from drug-treated samples with those from blank DMSO-treated controls, and identifying the drug concentration range at which the grayscale value is half that of the DMSO-treated control bands.
(§5) DC50 values can be calculated using ImageJ software to measure grayscale values of Western blot bands from drug-treated samples. […]

BTK = target: T1, BTK (Homo sapiens, UniProt Q06187); assay: Western blot degradation of BTK; type: cell-based; details: Table IIA4, BTK inhibitor-based
T1 construct: expression of target proteins in cells; endogenous in cells
T1 sequence (Q06187 whole entry): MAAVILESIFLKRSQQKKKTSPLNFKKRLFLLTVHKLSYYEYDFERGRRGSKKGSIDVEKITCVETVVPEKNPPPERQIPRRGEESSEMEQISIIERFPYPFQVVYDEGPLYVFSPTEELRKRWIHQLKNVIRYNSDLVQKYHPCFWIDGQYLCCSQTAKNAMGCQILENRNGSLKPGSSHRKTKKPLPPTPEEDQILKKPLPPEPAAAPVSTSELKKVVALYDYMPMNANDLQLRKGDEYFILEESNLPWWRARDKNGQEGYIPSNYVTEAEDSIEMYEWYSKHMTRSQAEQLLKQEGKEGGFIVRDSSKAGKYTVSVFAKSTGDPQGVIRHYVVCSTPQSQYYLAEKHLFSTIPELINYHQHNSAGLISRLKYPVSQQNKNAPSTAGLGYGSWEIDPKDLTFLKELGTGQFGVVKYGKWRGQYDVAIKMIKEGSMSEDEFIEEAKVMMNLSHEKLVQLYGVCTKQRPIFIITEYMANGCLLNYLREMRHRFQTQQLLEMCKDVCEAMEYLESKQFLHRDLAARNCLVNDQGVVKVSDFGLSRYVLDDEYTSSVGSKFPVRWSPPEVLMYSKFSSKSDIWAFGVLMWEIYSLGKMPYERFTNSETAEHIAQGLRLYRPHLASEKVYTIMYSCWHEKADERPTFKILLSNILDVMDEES
Experimental: as §1, §2, §3, §4
DC50 values can be calculated using ImageJ software to measure grayscale values of Western blot bands from drug-treated samples. The concentration-response curve is fitted to estimate the drug concentration corresponding to half the grayscale value.
Target protein remaining (%) refers to the percentage of target protein remaining in cells after treatment with protein degrader compounds.
Calculation method for target protein remaining (%): Use ImageJ software to measure grayscale values of Western blot bands from drug (protein degrader)-treated samples. The grayscale value of drug-treated bands is divided by that of internal control protein bands, and the resulting quotient is normalized to obtain the relative percentage of remaining target protein after protein degrader treatment.
Target protein degradation rate (%)=1−target protein remaining (%).

JEKO-1 = assay: Inhibition of JEKO-1 cell proliferation (CellTiter luminescent viability); type: cell-based, human; details: Table IC1, BTK inhibitor-based; JEKO-1, 96 hours; read-out: Inhibitory activity (IC50, nM) on tumor cell proliferation, JEKO-1
Experimental: (§6) The tumor cells used herein were cultured in a cell culture medium listed in table 3 at 37 °C in an incubator with 5% CO2. Prior to experimentation, all cell lines used were correctly identified by STR profiling, and tested negative for mycoplasma contamination using a mycoplasma detection kit through routine screenings.
(§7) The IC50 values of the compounds of the present disclosure (including the compounds in Table 1, Table 2, and Examples 1-468) were determined using the CellTiter-Meiluncell Luminescent Cell Viability Assay Kit from Dalian Meilun Biotech Co., Ltd. The detailed procedure is as follows: Tumor cells were seeded in 96-well cell culture plates at the densities specified in Table 4. On the following day, the test compounds of the present disclosure were subjected to serial dilution. The dilution can be performed according to one of the following two methods: • (1) The first dilution method: The test compounds of the present disclosure (including the compounds in Table 1, Table 2, and Examples 1-468) were subjected to 5-fold serial dilutions starting from a highest concentration of 2000 μM, resulting in a total of 9 concentrations from high to low (2000, 400, 80, 16, 3.2, 0.64, 0.128, 0.0256, 0.00512 μM). Subsequently, 0.5 μL of the test compound dilution was transferred into the 96-well plate containing the cells, with each well containing 100 μL of cell culture medium. […] Into the 96-well plate, the diluted test compounds and corresponding detection reagents were added, resulting in final test compound concentrations of 500 nM and 10 nM, respectively. The experimental procedure is described below using the diluted 2 μM test compound as an example.
(§8) 0.5 μL of the aforementioned diluted compound of the present disclosure (including the compounds in Table 1, Table 2, and Examples 1-468) was added to the seeded cells in 100 μL of medium, yielding a final test compound concentration of 10 nM. After the cells were treated with the compounds of the present disclosure for a specified period, the cell viability assay reagent was added to the culture medium according to the kit's instructions to determine cell viability. […] All controls were treated using the same procedure as the compounds of the present disclosure. The growth inhibition curves for the compounds of the present disclosure were plotted using Prism GraphPad software, and the IC50 values were calculated therefrom.

[1] = system: Human Multiple myeloma cell line (MM.1S); assay: Inhibition of MM.1S cell proliferation (CellTiter luminescent viability); type: cell-based; details: Table IC1, BTK inhibitor-based, 96 hours, read-out: Inhibitory activity (IC50, nM) on tumor cell proliferation, MM.1S
In short: (§9)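 IC50 is fitted from luminescent viability (CellTiter-Meiluncell) curves. Nine-point, 5-fold dilution series (top stock 2000 μM) are added at 0.5 μL per 100 μL medium to cells plated the day before, with growth at 37 °C and 5% CO2.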

[2] = system: Human T lymphocytic leukemia cell line (Jurkat); assay: Inhibition of Jurkat cell proliferation (CellTiter luminescent viability); type: cell-based; details: Table IC1, BTK inhibitor-based, 96 hours, read-out: Inhibitory activity (IC50, nM) on tumor cell proliferation, Jurkat
[3] = system: Human gastric cancer cell line MGC803; assay: Inhibition of MGC803 tumor cell proliferation (CellTiter luminescent viability); type: cell-based; details: Table IC1, BTK inhibitor-based; MGC803, 96 hours; read-out: Inhibitory activity (IC50, nM) on tumor cell proliferation, MGC803
Experimental: as §6, §7, §8

[4] = system: Human non-small cell lung cancer cell line NCI-H1975; assay: Inhibition of H1975 cell proliferation (CellTiter luminescent viability); type: cell-based; details: Table IC1, BTK inhibitor-based; H1975, 96 hours; read-out: Inhibitory activity (IC50, nM) on tumor cell proliferation, H1975
In short: as §9

CDK2 = CDK2 (Homo sapiens, UniProt P24941); assay: Western blot degradation of CDK2; type: cell-based; details: hPBMC Cell; 24 hours
Experimental: as §1, §2, §3, §4, §5

Sequence of ER (P03372 whole entry): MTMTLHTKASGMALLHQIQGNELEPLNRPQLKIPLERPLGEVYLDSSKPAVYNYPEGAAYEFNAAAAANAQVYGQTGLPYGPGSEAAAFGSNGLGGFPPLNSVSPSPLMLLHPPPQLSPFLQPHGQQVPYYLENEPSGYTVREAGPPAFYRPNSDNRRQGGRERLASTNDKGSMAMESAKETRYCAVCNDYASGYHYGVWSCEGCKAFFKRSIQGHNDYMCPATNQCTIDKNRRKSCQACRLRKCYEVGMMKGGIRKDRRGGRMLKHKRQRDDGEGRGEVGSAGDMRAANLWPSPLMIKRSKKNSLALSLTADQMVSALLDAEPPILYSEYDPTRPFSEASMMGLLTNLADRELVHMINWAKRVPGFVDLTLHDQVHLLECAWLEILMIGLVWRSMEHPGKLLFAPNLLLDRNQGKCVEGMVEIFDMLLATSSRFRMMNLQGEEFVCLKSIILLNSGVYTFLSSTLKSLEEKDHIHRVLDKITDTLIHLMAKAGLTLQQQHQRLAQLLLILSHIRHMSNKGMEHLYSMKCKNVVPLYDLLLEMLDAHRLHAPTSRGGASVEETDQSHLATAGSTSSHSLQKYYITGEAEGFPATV
Sequence of ER (Q96SW2 whole entry partner): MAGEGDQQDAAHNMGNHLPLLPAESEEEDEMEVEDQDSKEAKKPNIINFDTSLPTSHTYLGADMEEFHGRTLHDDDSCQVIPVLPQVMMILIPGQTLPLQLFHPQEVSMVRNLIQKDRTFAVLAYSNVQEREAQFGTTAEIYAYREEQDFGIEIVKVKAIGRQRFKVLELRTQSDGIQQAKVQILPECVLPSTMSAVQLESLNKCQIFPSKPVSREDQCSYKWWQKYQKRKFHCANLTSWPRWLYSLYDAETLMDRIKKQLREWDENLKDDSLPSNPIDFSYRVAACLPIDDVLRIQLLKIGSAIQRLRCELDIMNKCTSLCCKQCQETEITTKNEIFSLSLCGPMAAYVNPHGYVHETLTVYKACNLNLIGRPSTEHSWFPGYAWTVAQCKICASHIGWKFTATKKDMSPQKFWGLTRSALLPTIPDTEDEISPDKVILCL

Q: How did the “Degradation of substrate protein ER (substrate protein remaining %)” value (ER) turn out when `O=C1CCN(N2C(=O)c3ccc(CN4CCN(c5ccc([C@@H]6c7ccc(O)cc7OC[C@@H]6c6ccccc6)cc5)CC4)cc3C2=O)C(=O)N1` [GT-04778, 2-(2,4-dioxotetrahydropyrimidin-1(2H)-yl)-5-((4-(4-((3S,4R)-7-hydroxy-3-phenylchroman-4-yl)phenyl)piperazin-1-yl)methyl)isoindoline-1,3-dione] was run?
A: A (0%≤substrate protein remaining %≤80%)

Q: For `Nc1ncnc2c1c(-c1ccc(Oc3ccccc3)cc1)nn2C1CCN(Cc2ccc3c(c2)CN(N2CCC(=O)NC2=O)C3=O)CC1` [GT-05075, 1-(5-((4-(4-amino-3-(4-phenoxyphenyl)-1H-pyrazolo[3,4-d]pyrimidin-1-yl)piperidin-1-yl)methyl)-1-oxoisoindolin-2-yl)dihydropyrimidine-2,4 (1H,3H)-dione], which “Degradation of substrate protein BTK (substrate protein remaining %)” value (BTK) is on record?
A: A (0%≤substrate protein remaining %≤80%)

Q: What about the IC50 (JEKO-1) of the same compound?
A: 50 to 100 nM

Q: And the IC50 [1]?
A: 10 to 50 nM

Q: And the IC50 [2]?
A: 50 to 100 nM

Q: What about the IC50 [3] of the same compound?
A: 50 to 100 nM

Q: What about the IC50 [4] of the same compound?
A: 50 to 100 nM

Q: `Cc1cc(S(=O)(=O)N2CCN(Cc3ccc4c(c3)C(=O)N(N3CCC(=O)NC3=O)C4=O)CC2)ccc1Nc1ncc(Br)c(Nc2cccc(F)c2C(N)=O)n1` [GT-06829, 2-((5-bromo-2-((4-((4-((2-(2,4-dioxotetrahydropyrimidin-1(2H)-yl)-1,3-dioxoisoindolin-5-yl)methyl)piperazin-1-yl)sulfonyl)-2-methylphenyl)amino)pyrimidin-4-yl)amino)-6-fluorobenzamide] was tested. Which “Degradation of substrate protein CDK2 (substrate protein remaining %)” value (CDK2) did it give?
A: A (0%≤substrate protein remaining %≤80%)
